Assay results from patent publication US6406706B1, “Use of α- and β-santalols major constituents of sandal wood oil, in the treatment of warts, skin blemishes and other viral-induced tumors” (Haque, Inc., priority 1996, dated 2002).

System: warts
Details: human, in vivo
From the text: In accordance with the method according to this invention, regular use of the α- and β-santalols is meant to mean application of the α- and β-santalols at least once a day to the body surface containing the viral-induced tumors (i.e., warts and Molluscom contagiosum tumors). A further embodiment of the method of this invention comprises washing the affected area of the body with the soap, rinsing the area, placing a small amount of the α- and β-santalols on the tumor to be treated and then gently rubbing to facilitate penetration. […] The subject was advised to rub 1 drop of the santalol mixture after washing their hand with regular soap and water. The subject was to use a loofah sponge to soften the surface of the warts prior to the application of the santalol mixture. […] A subject had three warts on their right and left index fingers for over five years. […] The subject was advised to wash the warts with soap and water using a loofah sponge to soften the surface of the warts, prior to applying one drop of the santalol mixture on the warts and rubbing gently. The treatment was to occur once a day. […] The subject was asked to wash the warts on their face with soap and water and then apply the santalols with a cotton swab. […] After the resolution of the facial warts, the subject's non-facial warts were treated with the santalols.

α- and β-santalol [santalol mixture]
local side effects (redness, irritation or pain): no evidence of any local side effects
local skin irritation (redness, pain): no evidence of any local skin irritation
skin irritation, burning or redness at sites of application: no evidence
tolerability of treatment: well tolerated
